Reference: patent publication US20110020786A1, “PEPTIDE DENDRIMERS: AFFINITY REAGENTS FOR BINDING NOROVIRUSES” (BAYLOR COLLEGE OF MEDICINE, priority 2007, published 2011)
Ends that are not written are not given here.

Experiments:
[1] = target: immobilized NoVLPs; experiment: Surface plasmon resonance, dendrimer binding to immobilized NoVLPs (KD determination); set-up: species or system Norovirus; details: steady-state model fit of equilibrium average response, 8-240 μM dendrimer, HBS-P, 10 μL/min
Description: FIGS. 4A-4B are charts illustrating the concentration dependence of RHFQTHTVPLSL8 (the octovalent dendrimer of SEQ ID NO: 1) binding to immobilized NoVLPs. 1-8 μM; 2-32 μM; 3-64 μM; 4-96 μM; 5-160 μM; 6-240 μM; (FIG. 4A). Samples were prepared in the running buffer (HBS-P) and injected at a flowrate of 10 μL/min. The arrow indicates the end of the injection of the dendrimer (binding phase) which is followed by washing with running buffer (dissociation phase).
Peptide binding to VLPs was detected using a BIAcore 3000 instrument. VLPs were immobilized to a CM5 sensor chip using amine coupling at 5 μL/min in HBS buffer (10 mM HEPES containing 0.15 M NaCl and 0.005% surfactant P20, pH 7.4): the sensor chip surface was activated by a 10 min injection of a solution of 0.05 M NHS (N-hydroxysuccinimide) and 0.2 M EDC (N-ethyl-N′-dimethylaminopropylcarbodiimide) followed by a 5 min injection of VLPs (100 μg/mL) in 10 mM sodium acetate pH 4 and blocking of unreacted activated groups with a 7 min injection of ethanolamine. Final surface densities were typically around 9000 RU.

[2] = test system: native genogroup II Norovirus from clinical samples; experiment: Native NoV capture and detection in clinical samples by ELISA; format: binding; details: dendrimer as capture reagent, stool samples GII #1-3, bound virus detected with NS14
Description: The capture reagent was RHFQTHTVPLSL8 (the octovalent dendrimer of SEQ ID NO: 1) (middle bars), or AHFQTHTVPLSL8 (the octovalent dendrimer of SEQ ID NO: 2) (right bars) and bound virus was detected with a MAb3912 (GI) or NS14 (GII). […] For comparison, detection of Norovirus from genogroup I samples (GI#1-3) was evaluated using a genogroup I specific antibody as the capture reagent (left bars). The potential of false positive signals was evaluated using clinical samples negative for Norovirus (negative #1-3) with anti-genogroup I antibody, RHFQTHTVPLSL8 (the octovalent dendrimer of SEQ ID NO: 1) and AHFQTHTVPLSL8 (the octovalent dendrimer of SEQ ID NO: 2) as capture reagents.
Capture and detection of native NoV from clinical samples was performed by ELISA. […] Captured NoV was detected with an anti-Norwalk virus antibody from rabbit (for genogroup I Norwalk detection) or NS14 (for genogroup II NoV detection) as the primary antibody followed by goat anti-rabbit-HRP or goat anti-mouse-HRP as the secondary antibody with detection at 405 nm using the HRP substrate ABTS.

“RHFQTHTVPLSL8 (also: octovalent dendrimer of the peptide)” was tested, and the Kd [1] was 117 µM and the “capture of native genogroup II Norovirus from clinical samples” value [2] was “No genogroup II virus could be detected”.
